Experiments:
[1] = Urinary and fecal excretion in rats; format: in vivo, Sprague-Dawley rats; conditions: for Cumulative excretion of the analyte, SUM of urine and feces: within 72 h
Procedure: Access to water was maintained all the time. Samples including blank urine and feces before dosing, urine and feces from 0 to 24 h, 24 to 48 h, and 48 to 72 h after dosing were collected and stored at −80°C until analysis.
Urine samples were thawed and an aliquot of 100 μL was processed for detection as described in Section Drug Analysis. Feces were homogenized and then weighed, added 6-folds of acetonitrile, extracted by ultrasonic wave for 1 h and then centrifuged. An aliquot of 100 μL was also processed for detection as described in Section Drug Analysis.

PEPT1 = assay: Bidirectional transport in MDCK cell monolayers with selective transporter inhibitors or substrates; format: in vitro ADME, canine; conditions: dog, with Gly-Sar 10 mM, + Gly-Sar 10 mM (PEPT1)
Procedure: (§1) Caco-2, MDCK and MDCK-MRP2 cells were donated by Prof. Yan Xie and Yueming Ma from Shanghai University of Traditional Chinese Medicine. The cells were grown in culture dishes (Corning® Costar, Cambridge, MA, USA) using DMEM supplemented with 10% FBS, 1% NEAA and 1% penicillin-streptomycin solution. The cells were cultured in 5% CO2 and […] with 90% relative humidity at 37°C. The medium was replaced every other day during incubation. The cells were passaged every 3–4 days between 70 and 80% confluence at a 1:5 split ratio using 0.25% trypsin-EDTA. For the transport experiments, the cells from passages between 30 and 45 were seeded at 1 × 10^5 cells/cm^2 onto permeable polycarbonate inserts (0.45 μm pore size, seeding surface of 0.6 cm^2, Millipore, MA, USA) in 24-well plastic plates. The media in the culture plates were changed every other day for the first week after seeding and were replaced daily afterward. […] The cells were used for the transport experiments 21–28 (Caco-2) or 5–7 (MDCK and MDCK-MRP2) days after seeding, and only monolayers with a TEER-value above 420 Ω cm^2 were used during the studies.
(§2) The apical (AP) and basolateral (BL) sides are typical of polarized Caco-2, MDCK and MDCK-MRP2 epithelial cells. Before the experiments, the polarized cell monolayers were washed twice with warm HBSS solution and subsequently preincubated (37°C, 30 min). Afterward, HBSS solution on both sides of the cell monolayers was removed using a mini desktop vacuum pump. […] The final DMSO concentration in the HBSS or drug mixture was below 0.5%. The monolayers were incubated at 37°C, and 100 μL samples were taken at 30, 60, 90, and 120 min from the acceptor compartment and immediately replaced with the same volume of prewarmed fresh blank HBSS. TEER measurements for assessing the membrane integrity took place before and after the experiments.
(§3) The apparent permeability coefficients (Papp) and ER were calculated as Equations (2) and (3): […]
(§4) where dQ/dt is the steady-state flux, A is the membrane surface area, and C0 is the initial drug concentration in the donor compartment. PappBA is the Papp-value measured in BL to AP direction and PappAB is the Papp-value measured in AP to BL direction. It indicated the involvement of an active transport process when the ER-value is above 1.5 (Hubatsch et al., [2007]).

OATPs = assay: as above; format: in vitro ADME, canine; conditions: dog, with ES 0.05 mM (50 μM), + ES 0.05 mM (OATPs)
Procedure: as §1, §2, §3, §4

[2] = as above; format: in vitro ADME, canine; conditions: dog, Control (no inhibitor or substrate), read-out: ER
Procedure: as §1, §2, §3, §4

MCTs [3] = assay: as above; format: in vitro ADME, canine; conditions: dog, with phloretin 0.3 mM, + Phloretin 0.3 mM (MCTs)
Procedure: as §1, §2, §3, §4

Caco-2 cell monolayers = conditions: Caco-2 monolayers, 250–500 μM; ref Khan et al., 2004; cited from earlier work
[4] = Cytotoxicity CCK-8 assay in Caco-2 cells; format: cell-based, human; conditions: human, Caco-2 cells, 12 h incubation, read-out: Cell viability
Procedure: (§5) In brief, the cells were seeded on 96-well plates at 1 × 10^5 cells/mL and cultured in 100 μL of culture medium at incubator for 24 h. […] After 12 h incubation, 10 μL of CCK-8 dye was added to each well, and cells were incubated for another 2 h. Cell viability (%) was calculated using the following Equation (1):
(§6) (1) Cell viability (%)=(ODsample−ODblank)/ (ODcontrol−ODblank) ×100%
(§7) ODsample refers to the absorbance of a well with treated cells and CCK-8. ODblank refers to the absorbance of a well with medium and CCK-8 but without cells. ODcontrol refers to the absorbance of a well with untreated cells and CCK-8. The absorbance at 450 nm was measured by a microplate reader (Biotek Instrument; Gene Co., Ltd., VT, USA), and the results are presented as mean ± SD from triplicate wells.

Caco-2 cells = assay: Cytotoxicity CCK-8 assay in Caco-2 cells; format: cell-based, human; conditions: Caco-2, CCK-8
Procedure: as §5, §6, §7

MDCK cells = assay: Cytotoxicity CCK-8 assay in MDCK cells; format: cell-based, canine; conditions: CCK-8
Procedure: as §5, §6, §7

[5] = Cytotoxicity CCK-8 assay in MDCK cells; format: cell-based, canine; conditions: dog, MDCK cells, 12 h incubation, read-out: Cell viability
Procedure: as §5, §6, §7

OCTs/OCTNs = assay: in vitro; conditions: human, Caco-2, ER, Caco-2, 2 μM, + TEA 5 mM (OCTs/OCTNs)
Procedure: as §1, §2, §3, §4

SGLT1 = assay: in vitro; conditions: human, Caco-2, ER, Caco-2, 2 μM, + Phloridzin 0.5 mM (SGLT1)
Procedure: as §1, §2, §3, §4

MCTs [6] = assay: in vitro; conditions: human, Caco-2, ER, Caco-2, 2 μM, + Phloretin 0.3 mM (MCTs)
Procedure: as §1, §2, §3, §4

[7] = after oral harmaline 40.0 mg/kg, 24 h
[8] = after oral harmaline 40.0 mg/kg, 48 h
[9] = after oral harmaline 40.0 mg/kg, 72 h
[10] = after oral harmaline 40.0 mg/kg
[11] = after oral harmine 40.0 mg/kg, 24 h
[12] = after oral harmine 40.0 mg/kg, 48 h
[13] = after oral harmine 40.0 mg/kg, 72 h

Question: For `COc1ccc2c3c([nH]c2c1)C(C)=NCC3` [Harmaline], which “Cumulative excretion in feces (%) of the analyte” value (“Cumulative excretion in feces (%)” below) [1, 7] is on record?
Answer: Its value is 0.14 ± 0.10%.

Question: What about the “Cumulative excretion in urine (%) of the analyte” value (shortened to “Cumulative excretion in urine (%)”) [1, 7] of the same molecule?
Answer: Its value is 4.00 ± 4.36%.

Question: And the “Cumulative excretion in feces (%)” value [1, 8]?
Answer: The value was 0.19 ± 0.12%.

Question: What about the “Cumulative excretion in urine (%)” value [1, 8] of the same molecule?
Answer: The value was 4.71 ± 4.20%.

Question: And the “Cumulative excretion in feces (%)” value [1, 9]?
Answer: Its value is 0.19 ± 0.12%.

Question: What about the “Cumulative excretion in urine (%)” value [1, 9] of the same molecule?
Answer: The value was 4.85 ± 4.17%.

Question: And the “Cumulative excretion of the analyte, SUM of urine and feces” value (“Cumulative excretion of the analyte” for short) [1, 10]?
Answer: Its value is 5.05 ± 4.12%.

Question: And the Papp A→B at 120 min, 2 μM (PEPT1)?
Answer: The Papp A→B at 120 min, 2 μM was 20.9 ± 2.9 ×10⁻⁶ cm/s.

Question: And the Papp B→A at 120 min, 2 μM (PEPT1)?
Answer: Its Papp B→A at 120 min, 2 μM is 21.4 ± 1.96 ×10⁻⁶ cm/s.

Question: And the efflux ratio at 120 min, 2 μM (PEPT1; read-out: ER)?
Answer: Its efflux ratio at 120 min, 2 μM is 1.03.

Question: And the Papp A→B at 120 min, 2 μM (OATPs)?
Answer: The Papp A→B at 120 min, 2 μM was 19.4 ± 3.23 ×10⁻⁶ cm/s.

Question: And the efflux ratio at 120 min, 2 μM (OATPs; read-out: ER)?
Answer: The efflux ratio at 120 min, 2 μM was 1.07.

Question: And the efflux ratio at 120 min, 2 μM [2]?
Answer: Its efflux ratio at 120 min, 2 μM is 1.03.

Question: And the Papp B→A at 120 min, 2 μM (MCTs [3])?
Answer: Its Papp B→A at 120 min, 2 μM is 23.3 ± 1.4 ×10⁻⁶ cm/s.

Question: What about the efflux ratio at 120 min, 2 μM (MCTs [3]; read-out: ER) of the same molecule?
Answer: Its efflux ratio at 120 min, 2 μM is 1.15.

Question: And the “efflux ratios (ER)” value (Caco-2 cell monolayers)?
Answer: The value was less than 1.0.

Question: What about the viability at 12 h ([4]; Caco-2, up to 25 μM) of the same molecule?
Answer: Its viability at 12 h is greater than 90%.

Question: What about the “concentration without toxicity or decreased cell viability” value (Caco-2 cells) of the same molecule?
Answer: The value was “up to 25 μM”.

Question: What about the “drug concentration producing notable toxicity” value (Caco-2 cells) of the same molecule?
Answer: The value was “higher than 100 μM”.

Question: What about the “concentration without toxicity or decreased cell viability” value (MDCK cells) of the same molecule?
Answer: The value was “up to 25 μM”.

Question: And the “drug concentration producing notable toxicity” value (MDCK cells)?
Answer: The value was “higher than 100 μM”.

Question: What about the viability at 12 h ([5]; up to 25 μM) of the same molecule?
Answer: The viability at 12 h was greater than 90%.

Question: What about the efflux ratio (OCTs/OCTNs) of the same molecule?
Answer: The efflux ratio was 1.13.

Question: What about the efflux ratio (SGLT1) of the same molecule?
Answer: The efflux ratio was 0.95.

Question: And the efflux ratio (MCTs [6])?
Answer: The efflux ratio was 0.95.

Question: Which “Cumulative excretion in feces (%)” value [1, 7] does the source give for `COc1ccc2c(c1)[nH]c1c(C)nccc12` [Harmine] here?
Answer: Its value is 0.01 ± 0.01%.

Question: What about the “Cumulative excretion in urine (%)” value [1, 7] of the same molecule?
Answer: The value was 0.03 ± 0.01%.

Question: And the “Cumulative excretion in feces (%)” value [1, 8]?
Answer: The value was 0.02 ± 0.01%.

Question: And the “Cumulative excretion in urine (%)” value [1, 8]?
Answer: The value was 0.04 ± 0.01%.

Question: What about the “Cumulative excretion in feces (%)” value [1, 9] of the same molecule?
Answer: The value was 0.02 ± 0.01%.

Question: And the “Cumulative excretion in urine (%)” value [1, 9]?
Answer: The value was 0.05 ± 0.01%.

Question: What about the “Cumulative excretion of the analyte” value [1, 10] of the same molecule?
Answer: The value was 0.07 ± 0.01%.

Question: And the “Cumulative excretion in feces (%)” value [1, 11]?
Answer: Its value is 0.57 ± 0.37%.

Question: What about the “Cumulative excretion in urine (%)” value [1, 11] of the same molecule?
Answer: Its value is 0.02 ± 0.02%.

Question: And the “Cumulative excretion in feces (%)” value [1, 12]?
Answer: The value was 0.65 ± 0.36%.

Question: And the “Cumulative excretion in urine (%)” value [1, 12]?
Answer: Its value is 0.02 ± 0.03%.

Question: What about the “Cumulative excretion in feces (%)” value [1, 13] of the same molecule?
Answer: Its value is 0.65 ± 0.36%.

Question: And the “Cumulative excretion in urine (%)” value [1, 13]?
Answer: The value was 0.03 ± 0.03%.

Question: And the “Cumulative excretion of the analyte” value ([1]; after oral harmine 40.0 mg/kg)?
Answer: The value was 0.69 ± 0.36%.

Question: And the viability at 12 h ([4]; Caco-2, up to 5 μM)?
Answer: Its viability at 12 h is greater than 90%.

Question: And the “concentration without toxicity or decreased cell viability” value (Caco-2 cells)?
Answer: The value was “up to 5 μM”.

Question: What about the “drug concentration producing notable toxicity” value (Caco-2 cells) of the same molecule?
Answer: Its value is greater than 25 µM.

Question: What about the “concentration without toxicity or decreased cell viability” value (MDCK cells) of the same molecule?
Answer: The value was “up to 5 μM”.

Question: What about the “drug concentration producing notable toxicity” value (MDCK cells) of the same molecule?
Answer: The value was greater than 25 µM.

Question: And the viability at 12 h ([5]; up to 5 μM)?
Answer: The viability at 12 h was greater than 90%.
